This passage reports inhibition and IC50 results from patent publication US10995070B2, “Acetyl-CoA carboxylase modulators” (Monsanto Technology LLC, priority 2013, dated 2021).

One assay deals with Botrytis cinerea. As to the kind of experiment: Fungal growth inhibition assay, B. cinerea. Type of assay: cell-based. To be noted: 48 h. An excerpt: (§1) Spores were isolated from previously sub-cultured plates of Botrytis cinerea, Phytophthora capsici, Fusarium moniliforme, Fusarium viguliforme, Collectotrichum graminicola, and Diplodia maydis. All spores were filtered and collected in a sterile glass bowl to isolate the spores from the mycelia. The isolation and sub-culture plate condition for each pathogen is described below.
Spore isolation for B. cinerea: A 2-3 week old V8 (17%)+CaCO3 (3 g/L)+20 g agar plate was removed from room temperature and the mycelia were treated with 5-10 ml of filter sterilized Triton X 100 (0.05%). The mycelia were scraped to re-suspend the spores. The spores were then collected in a sterile filter bowl containing a fluted piece of filter paper and poured into a conical tube.
(§2) After spore isolation, pathogen spores were counted on a hemocytometer to calculate the spores/ml. In 17% V8 liquid media containing 3 g/L CaCO3, isolated spores were diluted to individual concentrations based on the growth curves at 48 hours of each pathogen. The spore concentrations for each pathogen were as follows: B. cinerea—10,000 sp/ml; P. capsici—300 sp/ml; F. monliforme—500 sp/ml; F. virguliforme—500 sp/ml; C. graminicola—3,000 sp/ml; and D. maydis—3,000 sp/ml.
(§3) Chemistry stocks were dissolved in DMSO at 2.5 mg/ml. Chemistry was diluted in a 96-well stock plate in five-fold dilutions to obtain a final concentration of 50, 10, and 2 ppm in vitro. The final concentration of the positive control after the five-fold dilutions was as follows: soraphen—0.5, 0.1, and 0.02 ppm. Negative controls on each plate included 2% DMSO, water containing spores and media, and a blank for background subtraction.
In a 96-well plate the spore solution, chemistries, and controls were combined to make the final solution concentrations mentioned above. Upon addition of the chemistry, an OD600 reading was done to assess chemical precipitation. […] Plate readings were repeated at 24 and 48 hrs. […]

The next assay concerns Fusarium moniloforme. The assay is described as follows: Fungal growth inhibition assay, F. moniliforme. Type of assay: cell-based. To be noted: 48 h. As to the method: as §1
Spore isolation for F. moniliforme: A 1 week old PDA (potato dextrose agar, pre-mix) plate was removed from 26° C. incubator with a light/dark 12 hour cycle and the mycelia were treated with 5-10 ml of filter sterilized Triton X 100 (0.05%). The mycelia were scraped to re-suspend the spores. The spores were then collected in a sterile filter bowl containing a fluted piece of filter paper.
as §2, §3
(§4) In a 96-well plate the spore solution, chemistries, and controls were combined to make the final solution concentrations mentioned above. Upon addition of the chemistry, an OD600 reading was done to assess chemical precipitation. The 96-well plates were incubated in plastic tubs containing wet paper towels under the following conditions, 25° C. in the dark for P. capsici and B. cinerea or 26° C. with light/dark cycle for C. graminicola, D. maydis, F. virguliforme, F. monliforme. Plate readings were repeated at 24 and 48 hrs. Visual ratings were performed at 24 and 48 hrs to check for precipitation and confirm efficacy. Visual and OD600 ratings of the chemistry at 48 hours were compared to the 2% DMSO control to determine the percent of pathogen growth inhibition.

Assay [1] deals with Collectotrichum graminicola. The assay is described as follows: Fungal growth inhibition assay, C. graminicola. It counts as cell-based. The settings on record: Colletotrichum graminicola, 48 h. As to the method: as §1
Spore isolation for C. graminicola: A 1-2 week old oatmeal agar (pre-mix) plate was removed from 26° C. incubator with a light/dark 12 hour cycle and the mycelia were treated with 10-15 ml of filter sterilized distilled water. The mycelia were scraped to re-suspend the spores. The spores were then collected in a sterile filter bowl containing a piece of sterile cheesecloth and poured into a conical tube.
as §2, §3, §4

The target in assay [2] is Ustilago maydis acetyl CoA carboxylase (ACCase) (Ustilago maydis, UniProt A0A0D1DYD5). The assay is described as follows: ACCase enzymatic assay (coupled PK/LDH, NADH OD340). To be noted: read-out: ACCase Inhibitory Activity IC50. Type of assay: biochemical. As to the method:
Ustilago maydis acetyl CoA carboxylase (ACCase) was cloned, expressed, and purified as described (Weatherly et al, Biochem. J., 2004) and the test compounds were tested in a 96-well plate format. Primary in vitro screening consisted of obtaining dose response data at 100, 33, 10, and 1 μM inhibitor. Actives in the primary screen were re-tested to establish IC50 values.
Direct detection of the conversion of acetyl CoA to malonyl CoA by ACCase was not feasible, but during this process ATP is converted to ADP which allowed for detection through a standard reaction coupling with ADP recycling to the oxidation of NADH. Thus, ACCase activity was measured via kinetic OD340 measurements of the conversion of NADH to NAD in a coupled reaction involving the conversion of phosphoenolpyruvate (PEP) to lactate.
The complete 200 ul reaction mixture contained 52.5 mM HEPES (pH8), 2.625 mM MgCl2, 1 mM ATP, 0.525 mM DTT, 11 mM NaHCO3, 1% DMSO with or without inhibitor, 1× pyruvate kinase/lactate dehydrogenase (PK/LDH), 0.3 mM NADH, 0.5 mM PEP, and 5 μg ACCase. The reactions were incubated at 30° C. for 10 minutes and then initiated by the addition of 0.33 mM acetyl CoA. The initiated reactions were read immediately via plate reader at OD340 and kinetic readings were acquired every 20 s for 15 minutes while keeping the temperature at 30° C.
A slope of the kinetic curve was determined by using the 2 to 7 minute data which was then calculated as percent inhibition relative to the no inhibitor control.
The primary screens were conducted in duplicate and the IC50's conducted in triplicate. Averages were reported along with standard deviation calculation to generate error bars.
Each plate contained its own controls and consisted of a DMSO only control, 5-fold titration series of soraphen from 2 μM to 3.2 nM, and an ADP coupled reaction control. […]
A slope of the kinetic curve was determined by using the 2 to 7 minute data which was then calculated as percent inhibition relative to the no inhibitor control. Those compounds which had no significant PK/LDH inhibition at or above the IC50 in the ACCase assay, were considered to be valid modulators of only ACCase.

Chain of Ustilago maydis acetyl CoA carboxylase (ACCase) (A0A0D1DYD5 1-2185): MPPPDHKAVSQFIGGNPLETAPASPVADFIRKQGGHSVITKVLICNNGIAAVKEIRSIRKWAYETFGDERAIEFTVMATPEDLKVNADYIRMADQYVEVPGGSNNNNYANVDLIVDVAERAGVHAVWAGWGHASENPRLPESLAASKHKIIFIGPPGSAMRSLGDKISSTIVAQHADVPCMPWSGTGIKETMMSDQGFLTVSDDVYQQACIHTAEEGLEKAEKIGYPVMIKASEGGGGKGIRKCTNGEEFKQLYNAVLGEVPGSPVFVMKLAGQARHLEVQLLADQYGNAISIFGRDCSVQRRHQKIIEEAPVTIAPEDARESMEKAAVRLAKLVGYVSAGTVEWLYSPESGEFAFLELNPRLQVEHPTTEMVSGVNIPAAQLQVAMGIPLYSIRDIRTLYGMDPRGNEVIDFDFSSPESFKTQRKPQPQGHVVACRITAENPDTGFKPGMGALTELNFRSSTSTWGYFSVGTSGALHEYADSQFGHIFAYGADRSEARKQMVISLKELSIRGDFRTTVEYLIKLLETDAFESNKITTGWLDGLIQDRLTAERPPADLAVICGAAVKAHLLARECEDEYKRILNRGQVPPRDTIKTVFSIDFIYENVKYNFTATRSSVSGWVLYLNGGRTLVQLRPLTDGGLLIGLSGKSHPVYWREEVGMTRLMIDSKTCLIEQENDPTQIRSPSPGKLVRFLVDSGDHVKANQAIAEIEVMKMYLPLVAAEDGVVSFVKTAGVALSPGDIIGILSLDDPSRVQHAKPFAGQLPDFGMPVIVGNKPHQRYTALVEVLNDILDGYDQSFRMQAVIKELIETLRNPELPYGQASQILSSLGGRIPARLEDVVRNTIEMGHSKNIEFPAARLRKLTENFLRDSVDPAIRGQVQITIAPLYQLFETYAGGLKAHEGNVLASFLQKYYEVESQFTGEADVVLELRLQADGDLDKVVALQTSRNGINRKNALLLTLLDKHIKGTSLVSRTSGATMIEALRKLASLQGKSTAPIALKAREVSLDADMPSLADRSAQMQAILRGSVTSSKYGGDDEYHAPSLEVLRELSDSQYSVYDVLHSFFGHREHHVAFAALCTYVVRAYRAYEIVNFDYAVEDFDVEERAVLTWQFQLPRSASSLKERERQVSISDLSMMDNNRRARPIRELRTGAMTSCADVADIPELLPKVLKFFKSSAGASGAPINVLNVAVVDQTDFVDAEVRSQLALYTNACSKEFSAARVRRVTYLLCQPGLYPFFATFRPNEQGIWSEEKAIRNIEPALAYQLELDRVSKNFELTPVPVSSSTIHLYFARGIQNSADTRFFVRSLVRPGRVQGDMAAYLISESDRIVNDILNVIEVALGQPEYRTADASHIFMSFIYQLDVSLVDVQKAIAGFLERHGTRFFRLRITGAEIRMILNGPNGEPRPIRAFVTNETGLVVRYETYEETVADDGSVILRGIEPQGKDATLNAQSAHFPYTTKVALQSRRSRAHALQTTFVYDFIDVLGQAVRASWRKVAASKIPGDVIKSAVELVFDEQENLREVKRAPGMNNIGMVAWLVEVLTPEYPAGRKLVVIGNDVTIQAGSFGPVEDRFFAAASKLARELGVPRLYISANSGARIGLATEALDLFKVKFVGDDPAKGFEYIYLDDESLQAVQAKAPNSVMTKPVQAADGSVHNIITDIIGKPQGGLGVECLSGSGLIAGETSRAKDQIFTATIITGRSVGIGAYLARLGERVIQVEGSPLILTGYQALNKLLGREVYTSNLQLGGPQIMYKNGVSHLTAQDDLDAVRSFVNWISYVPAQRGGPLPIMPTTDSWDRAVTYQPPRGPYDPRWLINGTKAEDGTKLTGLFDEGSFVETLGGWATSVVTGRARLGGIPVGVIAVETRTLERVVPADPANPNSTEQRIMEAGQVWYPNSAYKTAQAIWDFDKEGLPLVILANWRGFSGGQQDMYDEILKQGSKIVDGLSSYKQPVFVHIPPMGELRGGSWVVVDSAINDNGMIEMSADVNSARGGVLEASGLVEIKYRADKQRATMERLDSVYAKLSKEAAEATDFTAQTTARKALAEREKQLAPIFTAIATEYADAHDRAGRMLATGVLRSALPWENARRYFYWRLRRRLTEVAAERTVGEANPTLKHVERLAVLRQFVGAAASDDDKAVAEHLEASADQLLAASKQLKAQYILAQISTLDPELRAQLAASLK

Consider `O=C(O)Cc1ccc(-c2cc(-c3ccccc3)c3ccccc3n2)s1` [Formula Ib-iv, 2-(5-(4-phenylquinolin-2-yl)thiophen-2-yl)acetic acid], for which the inhibition (as a rule, the relative decrease from the control value, in per cent) at 2 ppm in the assay on Botrytis cinerea (2 ppm) was 0%; with Fusarium moniloforme, 17%; in assay [1], 0%. In addition, the figures for the inhibition at 10 ppm (in the assay with Botrytis cinerea (10 ppm); in the assay with Fusarium moniloforme; in assay [1]) were 1%, 31% and 53%, respectively. The inhibition at 50 ppm is 42% with Botrytis cinerea (50 ppm), 36% in the assay on Fusarium moniloforme (50 ppm) and 97% in assay [1]. Also, in assay [2], the IC50 (in general, the midpoint of a concentration-inhibition curve) worked out at 145 nM.

In the assay with Fusarium moniloforme, `O=C(O)Cc1ccc(-c2nc3ccccc3c(-c3ccccc3)c2Cl)s1` [Formula Ib-ii, 2-(5-(3-chloro-4-phenylquinolin-2-yl)thiophen-2-yl)acetic acid] came in with an inhibition at 2 ppm of 39% and an inhibition at 10 ppm of 45%. Moreover, in assay [1], at 2 ppm the inhibition was 0%, the inhibition at 10 ppm is 67% and the inhibition at 50 ppm came to 78%. Further, the half-inhibitory concentration (IC50) in assay [2] is 110 nM.
